Measured values from patent US7598244B2, “[1,2,4]triazolo[1,5,a]pyrimidin-2-ylurea derivative and use thereof” (Nippon Kayaku Kabushiki Kaisha, priority 2003, dated 2009).

System: MHC class I molecules of T1 cells (human lymphoma cell line 174×CEM.)
Assay: Effect on expression of MHC class I from T1 cells (flow cytometry, MFI)
Format: cell-based
Conditions: 3 days culture
Outline: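 EC20 is the compound level that lowers MHC class I MFI by 20% relative to compound-free cultures. Read-out was flow cytometry after FITC W6/32 staining.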

SMILES | EC20 (concentration necessary for suppressing 20% of the expression level of MHC class I molecules) [nM]
CC[C@H](NC(=O)Nc1nc2nccc(-c3ccc(OC)cc3)n2n1)C(=O)N1CCOCC1 [Example 149] | 630
COc1ccc(-c2ccnc3nc(NC(=O)NC(C)C)nn23)cc1OC [Example 086] | 340
COc1ccc(-c2ccnc3nc(NC(=O)N[C@@H](Cc4ccccc4)C(=O)OC(C)(C)C)nn23)cc1 [Example 112] | 850
COc1ccc(-c2ccnc3nc(NC(=O)N[C@H](C(=O)NCCN4CCOCC4)C(C)C)nn23)cc1 [Example 079] | 970
COc1ccc(-c2ccnc3nc(NC(=O)N[C@H](C(=O)NCCc4ccccn4)C(C)C)nn23)cc1 [Example 080] | 710
CC(C)NC(=O)Nc1nc2nccc(-c3cccc(OCCc4ccccc4)c3)n2n1 [Example 180] | 350
CC(C)CCC[C@H](C)NC(=O)Nc1nc2nccc(-c3cccc(OCc4cccnc4)c3)n2n1 [Example 261] | 80
COc1ccc(-c2ccnc3nc(NC(=O)N[C@@H](C)C(C)=O)nn23)cc1 [Example 220] | 720
O=C(NCc1ccccc1)Nc1nc2nccc(-c3cccc(O)c3)n2n1 [Example 025] | 500
O=C(Nc1nc2nccc(-c3ccccc3)n2n1)NC1CCCCC1 [Example 014] | 570
COc1ccc(-c2ccnc3nc(NC(=O)NC(C)c4ccc5c(c4)OCO5)nn23)cc1 (stereo not shown) [Example 297] | 110
COCC/C=C/[C@H](C)NC(=O)Nc1nc2nccc(-c3cccs3)n2n1 [Example 290] | 340
COc1ccc(-c2ccnc3nc(NC(=O)NC(C)CCC4(C)OCCO4)nn23)cc1 (stereo not shown) [Example 323] | 30
CC(C)CCC[C@H](C)NC(=O)Nc1nc2nccc(-c3cccc(OCc4ccccc4)c3)n2n1 [Example 256] | 550
COc1ccc(-c2ccnc3nc(NC(=O)NC(C)c4cccc(OS(C)(=O)=O)c4)nn23)cc1 (racemic) [Example 195] | 60
CNC(=O)Nc1nc2nccc(-c3ccc(OC)cc3)n2n1 [Example 026] | 900
COc1ccc([C@H](C)NC(=O)Nc2nc3nccc(-c4cccc(OC)c4)n3n2)cc1 [Example 186] | 440
CCCC(C)NC(=O)Nc1nc2nccc(-c3ccc(OCCOC)cc3)n2n1 (stereo not shown) [Example 286] | 160
COc1ccc(-c2ccnc3nc(NC(=O)NC4CCC(C(=O)N(C)C)CC4)nn23)cc1 (stereo not shown) [Example 169] | 660
COc1ccc(-c2ccnc3nc(NC(=O)N[C@@H](C)C4CCCCC4)nn23)cc1 [Example 218] | 180
COc1ccc(-c2ccnc3nc(NC(=O)NC(C)c4cccc(OCC(C)C)c4)nn23)cc1 (racemic) [Example 230] | 220
CCCC(C)NC(=O)Nc1nc2nccc(-c3ccc(OC)cc3)n2n1 (stereo not shown) [Example 285] | 320
COc1cccc([C@H](C)NC(=O)Nc2nc3nccc(-c4ccc(OCC(=O)O)cc4)n3n2)c1 [Example 229] | 690
COc1ccc(-c2ccnc3nc(NC(=O)NC(C)CCCN(C)C(=O)OC(C)(C)C)nn23)cc1 (stereo not shown) [Example 282] | 58
COc1cc(C(C)NC(=O)Nc2nc3nccc(-c4cccs4)n3n2)cc(OC)c1OC (stereo not shown) [Example 294] | 70
CC[C@H](NC(=O)Nc1nc2nccc(-c3ccc(OC)cc3)n2n1)c1ccccc1 [Example 130] | 130
COc1cccc([C@H](C)NC(=O)Nc2nc3nccc(-c4ccc(OC(=O)N5CCC(N6CCCCC6)CC5)cc4)n3n2)c1 [Example 293] | 90
COc1cccc([C@H](C)NC(=O)Nc2nc3nccc(-c4ccc(OCCC5OCCCO5)cc4)n3n2)c1 [Example 225] | 50

SMILES | EC20 (concentration necessary for suppressing 20% of the expression level of MHC class I molecules) [nM]
COC[C@H](C)NC(=O)Nc1nc2nccc(-c3ccc(OC)cc3)n2n1 [Example 237] | 250
CC(CCC(C)(C)O)NC(=O)Nc1nc2nccc(-c3cccs3)n2n1 (stereo not shown) [Example 318] | 40
CCC(CC)NC(=O)Nc1nc2nccc(-c3ccc(OC)cc3)n2n1 [Example 128] | 540
COc1cccc([C@H](C)NC(=O)Nc2nc3nccc(-c4cccc(Cl)c4)n3n2)c1 [Example 303] | 680
COc1ccc(-c2ccnc3nc(NC(=O)NCCC(=O)OC(C)(C)C)nn23)cc1 [Example 109] | 110
COCCOCOc1cccc(-c2ccnc3nc(NC(=O)N[C@@H](C)c4cccc(OC)c4)nn23)c1 [Example 213] | 150
COc1ccc(-c2ccnc3nc(NC(=O)N[C@@H](C)c4ccc([N+](=O)[O-])cc4)nn23)cc1 [Example 139] | 130
COc1cccc([C@H](C)NC(=O)Nc2nc3nccc(-c4cccc(OCCN5CCOCC5)c4)n3n2)c1.Cl [Example 204] | 70
COc1ccc(-c2ccnc3nc(NC(=O)NC4CCCC(C(=O)N(C)C)C4)nn23)cc1 (stereo not shown) [Example 175] | 300
COc1ccc(-c2ccnc3nc(NC(=O)NC(C)CCC(=O)N4CCOCC4)nn23)cc1 (stereo not shown) [Example 273] | 600
CC(NC(=O)Nc1nc2nccc(-c3cccc(OCc4cccnc4)c3)n2n1)c1ccc2c(c1)OCO2 (stereo not shown) [Example 306] | 230
CC(C)NC(=O)Nc1nc2nccc(-c3cccc(OCCCN(C)C)c3)n2n1 [Example 192] | 900
COc1ccc(-c2ccnc3nc(NC(=O)N[C@@H](C)C(=O)Nc4ccccc4)nn23)cc1 [Example 117] | 190
COc1cccc([C@H](C)NC(=O)Nc2nc3nccc(-c4cccc(OCCC5OCCCO5)c4)n3n2)c1 [Example 207] | 60
COCCCC(C)NC(=O)Nc1nc2nccc(-c3cccs3)n2n1 (stereo not shown) [Example 315] | 270
C[C@H](NC(=O)Nc1nc2nccc(-c3cccs3)n2n1)c1ccccc1 [Example 165] | 300
O=C(Nc1nc2nccc(-c3cccc(OCc4ccncc4)c3)n2n1)NC1CCCCC1 [Example 171] | 290
COc1cccc([C@H](C)NC(=O)Nc2nc3nccc(-c4ccc(OCCCN5CCOCC5)cc4)n3n2)c1 [Example 248] | 14
COc1ccc(-c2ccnc3nc(NC(=O)NCCCn4ccnc4)nn23)cc1 [Example 066] | 720
CCOCC[C@H](C)NC(=O)Nc1nc2nccc(-c3ccc(OCC4CCOCC4)cc3)n2n1 [Example 328] | 70
CCOCCCC(C)NC(=O)Nc1nc2nccc(-c3ccc(OC)cc3)n2n1 (stereo not shown) [Example 276] | 120
COc1cccc([C@H](C)NC(=O)Nc2nc3nccc(-c4cccc(O)c4)n3n2)c1 [Example 200] | 70
C[C@H](NC(=O)Nc1nc2nccc(-c3ccc(O)cc3)n2n1)c1cccc(O)c1 [Example 266] | 200
COc1cccc([C@H](C)NC(=O)Nc2nc3nccc(-c4cccs4)n3n2)c1 [Example 181] | 430
COC(C)(C)CCC[C@H](C)NC(=O)Nc1nc2nccc(-c3cccs3)n2n1 [Example 288] | 20
COc1ccc(-c2ccnc3nc(NC(=O)NC(C)CCN(C)C(=O)OC(C)(C)C)nn23)cc1 (stereo not shown) [Example 277] | 180
COc1cccc([C@H](C)NC(=O)Nc2nc3nccc(-c4ccc(N(C)C)cc4)n3n2)c1 [Example 232] | 40
